The first experiment deals with T1, HP1α-chromatin condensates (Homo sapiens, UniProt P45973).
T1 construct: 6x-His (cleaved yes); made in house; host or cells: E. coli Rosetta BL21 (DE3)
T1 sequence (P45973 whole entry): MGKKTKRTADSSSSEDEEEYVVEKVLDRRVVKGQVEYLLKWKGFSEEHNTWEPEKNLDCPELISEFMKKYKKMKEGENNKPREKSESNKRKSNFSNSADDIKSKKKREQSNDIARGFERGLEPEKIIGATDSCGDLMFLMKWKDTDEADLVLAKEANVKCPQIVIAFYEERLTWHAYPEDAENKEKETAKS
The experiment in a line: HP1α-chromatin condensate in vitro droplet assay / screening (fluorescence imaging). It counts as biochemical. The note with it: FIG. 6; interaction partner added to HP1α-chromatin condensates. The protocol: HP1α was diluted to the desired 2× concentration. HP1αKCK was added to HP1α at a ratio of 1:500 HP1α: HP1αKCK for evident fluorescent signal. HP1α-chromatin droplets were formed at 40 nM nucleosome array concentration in 20 mM HEPES pH 7.5, 0.1 mM EDTA and 2× HP1α-HP1αKCK in 20 mM HEPES pH 7.2, 150 mM KCl 1 mM DTT. 10 μL of 80 nM nucleosome arrays (2×) was mixed with 10 μl 2× HP1α-HP1αKCK and incubated at room temperature for 20 minutes before transferring to a glass bottom 384 well plate for imaging.
384 well glass bottom plates (Greiner Sensoplate 781892) were prepared for sample examination as follows: The wells were rinsed three times with 100 μl water, incubated with 100 μl of 2% Hellmanex for 30 mins-1 hour, rinsed with water three times again, incubated with 100 μl of 0.5M NaOH for 30 mins, rinsed with water three times, and then 70 μl of 20 mg/ml mPEG-silane dissolved in 95% EtOH was added to coat the wells. The plate was covered with foil and left overnight at 4° C.
After the overnight, the wells were rinsed with 95% EtOH five times, followed by incubation with 100 mg/ml BSA for 2 hours. Then, the wells were rinsed three times with water and three times with 1× phasing buffer afterwards (20 mM HEPES pH 7.2, 75 mM KCl, 0.05 mM EDTA, 0.5 mM DTT). After, the condensates are added to each well.
To conduct droplet assays at scale, arrays assembled with 540 μg fluorescently labeled array DNA and 1.3 mg of fluorescently labeled HP1α were needed for one 384 well plate. 384 well plates were washed and coated in mPEG-silane in bulk using the Biotek EL406 washer dispenser. HP1α-array droplets were screened against a Bioactive compound library (Selleck Chemicals). These compounds were diluted in 1× phasing buffer (20 mM HEPES pH 7.2, 75 mM KCl, 0.05 mM EDTA, 0.5 mM DTT), and added to the wells for a final concentration of 10 μM in the reaction. The droplets and compounds were dispensed in the 384 wells using the Biomek-FX.
After 3-4 hours of settling to the bottom of the plate, the condensates were imaged on the IN Cell Analyzer 6500HS equipped with a Nikon Plan Apo 40×/0.95NA objective and sCMOS camera. Five field of views per channel were taken per well. Image analysis was conducted using a custom pipeline written in Python using NumPy and SciPy SciKit libraries. Classical image segmentation and quantification techniques were implemented to identify droplets and characterize their geometry, fluorescent intensity, and consequently the effectiveness of the small molecules on the droplets.
Take “HP1β: heterochromatin protein, biologically relevant interaction partner of HP1α-chromatin condensates”: the “Effect of biologically relevant interaction partners on HP1α-chromatin condensate formation” value was “dissolves condensates, making them disappear or smaller”.

Staying with this experiment, now noted: FIG. 7; Bioactive compound library (Selleck Chemicals), final concentration of 10 μM; H3K9me3 nucleosome arrays.
On to `CN(C)CCN1C(=O)c2cccc3cc(N)cc(c23)C1=O` [Amonifide], for which the “Effect of bioactive small molecules on HP1α-chromatin condensates” value (“Effect of bioactive small molecules” for short) is recorded as “dissolve condensates”.

For the molecule `CC(c1cc2ccccc2s1)N(O)C(N)=O` (stereo not drawn) [Zileuton], the “Effect of bioactive small molecules” value was “dissolve condensates”.

In the case of `C#Cc1cccc(Nc2ncnc3cc(OCCOC)c(OCCOC)cc23)c1` [Erlotinib], the “Effect of bioactive small molecules” value is “enhance condensate formation”.

As to `CS(=O)(=O)CCNCc1ccc(-c2ccc3ncnc(Nc4ccc(OCc5cccc(F)c5)c(Cl)c4)c3c2)o1` [Lapatinib ditosylate], the “Effect of bioactive small molecules” value was “mild or no effect”.

Turning to `CS(=O)(=O)c1ccc(C(=O)Nc2ccc(Cl)c(-c3ccccn3)c2)c(Cl)c1` [Vismodegib], the “Effect of bioactive small molecules” value is reported as “enhance condensate formation”.

For the origin of these results see US20250085285A1, “Methods for Generating Biologically Specific Chromatin Condensates and Uses Thereof” (The Regents of the University of California, priority 2022, published 2025).
